From paper PMC6747274, “Multifunctional Peptides from Spanish Dry-Cured Pork Ham: Endothelial Responses and Molecular Modeling Studies” (International Journal of Molecular Sciences, 2019)
Where no end group is shown, it is not given here.

System: eNOS mRNA, EA.hy926 cells
Assay: eNOS mRNA expression by RT-PCR in EA.hy926 cells
Format: cell-based, human
Details: 300 µM peptide 16 h, then 100 ng/mL TNF-α 6 h; p = 0.0003 (BP1), 0.04 (BP2)
Procedure: EA.hy926 cells, the hybrid human umbilical vein endothelial cell line, were obtained from the American Type Culture Collection (ATCC® CRL2922™, Rockville, MD, USA). Cells were cultured in high glucose Dulbecco’s Modified Eagle’s Medium (DMEM), containing 10% heat-inactivated fetal bovine serum (FBS, Biowest, Riverside, CA, USA) and 50 U/mL of penicillin and 50 µg/mL streptomycin (Sigma Aldrich Chemical Co., Saint Louis, MO, USA). Cells were grown in 5% CO2 in a humidified air incubator at 37 °C. Subculture was performed when 90% confluence was reached.
EA.hy926 were seeded in six-well plates at 0.25 × 10^6 cells/well in DMEM supplemented with 5% FBS. Cells were treated with 300 µM of each peptide for 16 h. Then, 100 ng/mL TNF-α or 300 µM H2O2 were added for an additional 6 h or 24 h, respectively.
Total RNA was extracted from EA.hy926 cells using 300 µL Trisure™ (Bioline, Taunton, MA, USA) reagent and Direct-zol™ RNA MiniPrep (Zymo Research Irvine, Irvine, CA, USA) according to the manufacturer’s protocol. Total RNA was reverse-transcribed into complementary DNA (Sensifast cDNATM Synthesis kit, Bioline, Taunton, MA, USA). The mRNA levels of the target genes were quantified by RT-PCR using SensiFAST SYBER Hi-ROX Kit (Bioline, Taunton, MA, USA) with StepOnePlus Real-Time PCR System (Applied Biosystems, Foster City, CA, USA). Briefly, 5 µL of 1:5 diluted cDNA was added to the qPCR reaction containing 10 μL 2X SensiFAST Mix and 400 nM of each primer in a total volume of 20 μL.
Specific and validated primers for human glyceraldehyde-3-phosphate dehydrogenase (GADPH), intercellular adhesion marker-1 (ICAM-1), vascular cell adhesion marker-1 (VCAM-1), endothelial nitric oxide synthase (eNOS), interleukin 6 (IL-6), catalase, SOD (Super Oxide Dismutase), NADPH (Nicotinamide Adenine Dinucleotide Phosphate oxidase) and Bax (proapoptosis regulator) genes were used (Sigma-Aldrich Chemical Co., Saint Louis, MO, USA). […]
The relative quantification of gene expression was determined by the comparative fold change […] method. […]

KAAAATP [BP2] was tested, and the “eNOS mRNA expression vs TNF-α stimulated cells” value was “recovered”.
